Laboratory results taken from patent EP4813383A1, “USE OF TAFAMIDIS AND PHARMACEUTICALLY ACCEPTABLE SALT THEREOF IN PREVENTION, ALLEVIATION, OR TREATMENT OF DISEASES ASSOCIATED WITH HIF-2a” (Huaya Jiyuan (Shenzhen) Pharmaceutical Co., Ltd., priority 2024, dated 2025).
Where a name gives a salt, the structure may show the parent alone.

Molecular target: T1, HIF-2α (Homo sapiens, UniProt Q99814)
T1 construct: 786-O is a renal carcinoma cell line that predominantly expresses HIF-2α and lacks functional HIF-1α; endogenous in cells; host or cells: 786-O cells stably carrying an HRE-driven luciferase reporter
Assay: Luciferase reporter gene assay (HRE-driven luciferase in stably transfected 786-O cells)
Type: cell-based
Text: Experimental principles: 786-O is a renal carcinoma cell line that predominantly expresses HIF-2α and lacks functional HIF-1α. This characteristic makes 786-O cells an ideal model for studying HIF-2α transcriptional activity and related signaling pathways. In the luciferase reporter gene assay, a 786-O monoclonal cell line that stably expresses hypoxia response element (HRE)-driven luciferase (Luc) activity is obtained through puromycin selection. The HIF-2α agonist promotes dimerization of HIF-2α and HIF-β, and activates an HRE promoter. By measuring fluorescence intensity, luciferase activity can be determined, thereby assessing the ability of the HIF-2α agonist to promote transcription.
Experimental method: A total of 6000 stably transfected 786-O cells stably containing HRE and Luc sequences are seeded in each well of a 96-well plate, and 100 µL of RPMI-1640 culture medium containing 10% fetal bovine serum is added to each well. After 24 hours, a compound at a corresponding concentration is added to each well. A blank group is set as a control. Only a DMSO solvent is added in the well of the blank group. For initial compound screening, both tafamidis and tafamidis meglumine are tested at two concentrations: 2 µM and 20 µM. For concentration-gradient determination, each concentration is tested in triplicate. After co-incubation for 24 hours, the culture medium is discarded, and 20 µL of firefly luciferase reporter gene cell lysis buffer (RG126M, Beyotime) is added to each well. The 96-well plate is shaken on a microplate shaker for 10 minutes. After shaking, 10 µL of lysate is transferred into a white opaque plate, and then 10 µL of Steady-Lumi™ firefly luciferase assay reagent (RG058S, Beyotime) is added to each well. Finally, luminescence is measured using a microplate reader (Agilent Synergy Neo2). E20 represents the effect of the compound at a 20 µM concentration, and is calculated as: E20 = fluorescence value of the 20 µM well ÷ fluorescence value of the blank control × 100%. E2 represents the effect of the compound at a 2 µM concentration, and is calculated as: E2 = fluorescence value of the 2 µM well ÷ fluorescence value of the blank control × 100%. EC50 is the compound concentration at which the agonistic efficacy is increased by 50% relative to the blank control. The agonistic efficacy of a compound is determined by calculating the concentration (EC50) required to achieve a 50% increase in the fluorescence activity relative to the blank control and a maximum activation percentage (Emax). The maximum activation percentage (Emax) of an agonist refers to a ratio, expressed as a percentage, of the fluorescence value corresponding to the maximal effect (observed maximal response) induced when the agonist concentration reaches receptor-binding saturation in a particular receptor system, to the fluorescence value of the receptor system in the absence of agonist. In this experiment, Vyndaqel is directly used in place of tafamidis meglumine.

T1 sequence (Q99814 whole entry): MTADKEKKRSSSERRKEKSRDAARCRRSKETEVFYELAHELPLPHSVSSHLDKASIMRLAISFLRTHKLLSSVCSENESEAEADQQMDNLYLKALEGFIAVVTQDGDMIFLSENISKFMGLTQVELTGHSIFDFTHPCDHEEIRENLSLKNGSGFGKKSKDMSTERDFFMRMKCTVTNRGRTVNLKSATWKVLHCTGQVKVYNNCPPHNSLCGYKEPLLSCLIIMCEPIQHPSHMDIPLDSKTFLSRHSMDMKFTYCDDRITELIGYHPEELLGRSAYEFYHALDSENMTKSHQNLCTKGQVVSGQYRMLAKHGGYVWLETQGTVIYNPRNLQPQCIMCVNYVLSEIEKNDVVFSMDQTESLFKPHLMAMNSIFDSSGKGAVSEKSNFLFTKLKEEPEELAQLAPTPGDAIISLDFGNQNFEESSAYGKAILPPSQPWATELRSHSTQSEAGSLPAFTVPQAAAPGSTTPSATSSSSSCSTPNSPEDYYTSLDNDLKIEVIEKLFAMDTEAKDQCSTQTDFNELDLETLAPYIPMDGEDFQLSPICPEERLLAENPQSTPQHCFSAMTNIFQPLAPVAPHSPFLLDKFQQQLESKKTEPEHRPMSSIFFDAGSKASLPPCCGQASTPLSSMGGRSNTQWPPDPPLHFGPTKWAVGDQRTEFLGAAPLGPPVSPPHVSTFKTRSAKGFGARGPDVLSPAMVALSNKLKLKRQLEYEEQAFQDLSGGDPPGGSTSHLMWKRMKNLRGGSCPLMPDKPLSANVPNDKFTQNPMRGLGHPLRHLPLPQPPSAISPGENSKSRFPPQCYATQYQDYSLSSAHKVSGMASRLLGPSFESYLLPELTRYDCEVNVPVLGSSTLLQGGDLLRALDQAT
T1 sequence (P27540 whole entry partner): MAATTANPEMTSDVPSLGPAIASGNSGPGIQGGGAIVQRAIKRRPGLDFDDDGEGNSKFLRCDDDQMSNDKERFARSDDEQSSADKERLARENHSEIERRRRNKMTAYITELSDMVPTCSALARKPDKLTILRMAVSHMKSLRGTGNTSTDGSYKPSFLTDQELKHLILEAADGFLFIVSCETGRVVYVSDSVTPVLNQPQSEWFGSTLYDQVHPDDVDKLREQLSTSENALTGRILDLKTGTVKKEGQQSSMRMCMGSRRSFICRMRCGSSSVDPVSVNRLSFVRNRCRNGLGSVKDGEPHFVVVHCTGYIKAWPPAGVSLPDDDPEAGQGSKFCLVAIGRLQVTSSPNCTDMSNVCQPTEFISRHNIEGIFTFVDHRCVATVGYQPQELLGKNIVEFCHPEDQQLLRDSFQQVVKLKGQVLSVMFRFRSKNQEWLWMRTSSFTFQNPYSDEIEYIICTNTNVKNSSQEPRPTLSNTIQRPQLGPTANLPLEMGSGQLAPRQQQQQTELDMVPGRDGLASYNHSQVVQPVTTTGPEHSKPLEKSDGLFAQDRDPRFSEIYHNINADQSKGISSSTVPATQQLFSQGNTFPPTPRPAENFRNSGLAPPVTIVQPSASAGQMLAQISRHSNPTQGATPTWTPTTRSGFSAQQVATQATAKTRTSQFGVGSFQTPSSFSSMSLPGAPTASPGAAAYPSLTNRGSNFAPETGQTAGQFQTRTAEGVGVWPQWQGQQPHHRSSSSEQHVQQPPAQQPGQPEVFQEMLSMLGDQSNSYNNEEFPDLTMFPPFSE

For O=C(O)c1ccc2nc(-c3cc(Cl)cc(Cl)c3)oc2c1 [tafamidis meglumine, 1-deoxy-1-(methylamino)-D-glucitol salt of 2-(3,5-dichlorophenyl)-1,3-benzoxazole-6-carboxylic acid], which “agonistic efficacy at a 2 µM concentration (E2)” value (2 µM, 24 hours co-incubation, fluorescence value as % of blank control (DMSO)) is on record?
Its value is 122%.

And the “agonistic efficacy at a 20 µM concentration (E20)” value (20 µM, 24 hours co-incubation, fluorescence value as % of blank control (DMSO))?
Its value is 223%.

And the EC50 (EC50, concentration required for a 50% increase in fluorescence activity relative to the blank control, 24 hours)?
Its EC50 is 0.97 µM.

What about the “Emax (maximum activation percentage)” value (maximal response as % of fluorescence without agonist) of the same molecule?
Its value is 228%.
